Measurements published in ChEMBL document CHEMBL5046290, “Design, Synthesis, and Preclinical Profiling of GSK3739936 (BMS-986180), an Allosteric Inhibitor of HIV-1 Integrase with Broad-Spectrum Activity toward 124/125 Polymorphs” (J Med Chem, 2022).

Columns and labels:
[1] = Displacement of [3H](S)-2-(tert-butoxy)-2-(2-methyl-4-(p-tolyl)quinolin-3-yl)acetic acid from LEDGF-binding site of recombinant T124/T125 polymorphic HIV1 integrase by LIDIA assay; parameters: species or system Human immunodeficiency virus 1
[2] = tested on: Human immunodeficiency virus 1; assay: Antiviral activity against recombinant HIV1 NLRep-Rluc harbouring polymorphic T124/T125 integrase infected in human MT-2 cells assessed as inhibition of virus growth in presence of fetal bovine serum by measuring luciferase activity after 5 days; type: functional, organism-based, MT2
[3] = Cytotoxicity against human MT2 cells assessed as cell viability measured after 4 days by XTT assay; type: toxicity, cell-based; details: time 4 day
[4] = biological target: T1, Solute carrier organic anion transporter family member 1B1 (Homo sapiens, UniProt Q9Y6L6); assay: Inhibition of OATP1B1 (unknown origin); type: ADME
T1 sequence (Q9Y6L6 whole entry): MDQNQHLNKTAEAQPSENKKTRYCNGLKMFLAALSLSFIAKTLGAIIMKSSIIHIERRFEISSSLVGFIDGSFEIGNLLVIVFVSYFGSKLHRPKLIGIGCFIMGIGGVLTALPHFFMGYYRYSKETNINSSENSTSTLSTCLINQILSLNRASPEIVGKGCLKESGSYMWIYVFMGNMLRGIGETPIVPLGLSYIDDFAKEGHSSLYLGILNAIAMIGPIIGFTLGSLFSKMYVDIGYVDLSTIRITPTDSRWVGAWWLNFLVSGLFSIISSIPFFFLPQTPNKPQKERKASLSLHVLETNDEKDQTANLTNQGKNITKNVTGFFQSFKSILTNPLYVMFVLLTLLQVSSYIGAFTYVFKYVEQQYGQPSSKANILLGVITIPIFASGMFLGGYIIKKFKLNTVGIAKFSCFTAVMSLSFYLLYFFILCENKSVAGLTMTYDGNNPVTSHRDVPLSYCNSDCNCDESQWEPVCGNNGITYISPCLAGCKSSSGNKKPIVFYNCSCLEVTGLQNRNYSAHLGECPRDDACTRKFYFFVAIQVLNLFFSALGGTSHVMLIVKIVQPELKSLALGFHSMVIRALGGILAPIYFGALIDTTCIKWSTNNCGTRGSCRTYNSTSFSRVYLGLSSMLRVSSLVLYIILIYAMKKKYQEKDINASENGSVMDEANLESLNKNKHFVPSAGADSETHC

[5] = Clearance in Sprague-Dawley rat at 1 mg/kg, iv by LC-MS/MS analysis; type: ADME, organism-based; details: in vivo
[6] = tested on: Human immunodeficiency virus 1; assay: Antiviral activity against recombinant HIV1 NLRep-Rluc harbouring polymorphic NA infected in human MT-2 cells assessed as inhibition of virus growth in presence of fetal bovine serum by measuring luciferase activity after 5 days; type: functional, organism-based; details: Human immunodeficiency virus 1, NLRep, MT2, 120 h
[7] = tested on: Human immunodeficiency virus 1; assay: Antiviral activity against recombinant HIV1 NLRep-Rluc harbouring polymorphic TA infected in human MT-2 cells assessed as inhibition of virus growth in presence of fetal bovine serum by measuring luciferase activity after 5 days; type: functional, organism-based; details: Human immunodeficiency virus 1, NLRep, MT2, 120 h
[8] = tested on: Human immunodeficiency virus 1; assay: Antiviral activity against recombinant HIV1 NLRep-Rluc harbouring polymorphic AA infected in human MT-2 cells assessed as inhibition of virus growth in presence of fetal bovine serum by measuring luciferase activity after 5 days; type: functional, organism-based; details: Human immunodeficiency virus 1, NLRep, MT2, 120 h
[9] = tested on: Human immunodeficiency virus 1; assay: Antiviral activity against recombinant HIV1 A128T-resitant mutant […] infected in human MT-2 cells assessed as inhibition of virus growth in presence of fetal bovine serum by measuring luciferase activity after 5 days; type: functional, organism-based; details: Human immunodeficiency virus 1, MT2, 120 h
[10] = tested on: Human immunodeficiency virus 1; assay: Antiviral activity against recombinant HIV1 NLRep-Rluc harbouring polymorphic NT infected in human MT-2 cells assessed as inhibition of virus growth in presence of fetal bovine serum by measuring luciferase activity after 5 days; type: functional, organism-based; details: Human immunodeficiency virus 1, NLRep, MT2, 120 h
[11] = tested on: Human immunodeficiency virus 1; assay: Antiviral activity against recombinant HIV1 NLRep-Rluc harbouring polymorphic AT infected in human MT-2 cells assessed as inhibition of virus growth in presence of fetal bovine serum by measuring luciferase activity after 5 days; type: functional, organism-based; details: Human immunodeficiency virus 1, NLRep, MT2, 120 h
[12] = Metabolic stability in rat liver microsome assessed half life at 0.5 uM by LC-MS/MS analysis; type: ADME; details: liver microsomes
[13] = Stability in human liver microsome assessed as half life; type: ADME; details: liver microsomes
[14] = Metabolic stability in human liver microsome assessed half life at 0.5 uM by LC-MS/MS analysis; type: ADME; details: liver microsomes
[15] = tested on: Human immunodeficiency virus 1; assay: Anti retroviral activity against HIV-1 NL4-3 harboring at NT polymorph infected in human MT4 cells by CellTitre-Glo luminescent reagent based assay; type: functional, organism-based; details: Human immunodeficiency virus 1, NL4-3, MT4
[16] = tested on: Human immunodeficiency virus 1; assay: Anti retroviral activity against HIV-1 NL4-3 harboring at TT polymorph infected in human MT4 cells by CellTitre-Glo luminescent reagent based assay; type: functional, organism-based; details: Human immunodeficiency virus 1, NL4-3, MT4
[17] = tested on: Human immunodeficiency virus 1; assay: Anti retroviral activity against HIV-1 NL4-3 harboring at NA polymorph infected in human MT4 cells by CellTitre-Glo luminescent reagent based assay; type: functional, organism-based; details: Human immunodeficiency virus 1, NL4-3, MT4
[18] = tested on: Human immunodeficiency virus 1; assay: Anti retroviral activity against HIV-1 NL4-3 harboring at AT polymorph infected in human MT4 cells by CellTitre-Glo luminescent reagent based assay; type: functional, organism-based; details: Human immunodeficiency virus 1, NL4-3, MT4
[19] = tested on: Human immunodeficiency virus 1; assay: Anti retroviral activity against HIV-1 NL4-3 harboring at AA polymorph infected in human MT4 cells by CellTitre-Glo luminescent reagent based assay; type: functional, organism-based; details: Human immunodeficiency virus 1, NL4-3, MT4
[20] = tested on: Human immunodeficiency virus 1; assay: Anti retroviral activity against HIV-1 NL4-3 harboring at TA polymorph infected in human MT4 cells by CellTitre-Glo luminescent reagent based assay; type: functional, organism-based; details: Human immunodeficiency virus 1, NL4-3, MT4
[21] = Human immunodeficiency virus 1, NLRep, MT2, 120 h

Compound	IC50 [1] [nM]	EC50 [2, 21] [nM]	EC50 [6] [nM]	EC50 [7] [nM]	EC50 [8] [nM]	EC50 [9] [nM]	EC50 [10] [nM]	EC50 [11] [nM]	other results
Cc1nc(C)c([C@H](OC(C)(C)C)C(=O)O)c(N2CCC(C)(C)CC2)c1-c1ccc(OCCc2ccc(C#N)cc2)cc1	13.3	1.5							CC50 at 96 h [3]: ≥ 33500 nM; IC50 [4]: 100 nM
Cc1nc(C)c([C@H](OC(C)(C)C)C(=O)O)c(N2CCC(C)(C)CC2)c1-c1ccc(OC2COCC2c2ccc(F)cc2)cc1 (stereo in doubt; 40b)	7.9		3.7	0.92	1.7	> 500	0.53	1.3	clearance [5]: 23.4 mL/min/kg; half-life at 0.5 µM [12]: > 120 min; EC50 ([2]; mt2): 0.6 nM; half-life [13]: 47 min; half-life at 0.5 µM [14]: 47 min
Cc1nc2ccccc2c(-c2ccc3c4c(ccnc24)CCO3)c1[C@H](OC(C)(C)C)C(=O)O [BI-224436]		49	49.1	49.5	28.1	> 500	56.3	48.7	EC50 [15]: 32 nM; EC50 [16]: 32 nM; EC50 [17]: 32 nM; EC50 [18]: 32 nM; EC50 [19]: 32 nM; EC50 [20]: 32 nM
